Measurements taken from paper PMC3496402 (Drug Design, Development and Therapy, 2012).
Read-outs that look alike come from different tables or passages of the source.

Assays:
[1] = rat liver microsomal incubations, intrinsic clearance; assay type: in vitro ADME; conditions: Sprague-Dawley, microsomes, pH 7.4
[2] = rat pharmacokinetics, intravenous; assay type: in vivo, male Sprague-Dawley rats; conditions: for AUC: male, Sprague-Dawley, rat, whole blood, iv, 0.5 mg/kg
hURAT1 (SLC22A12) = target: T1, hURAT1 (SLC22A12) (Homo sapiens, UniProt Q96S37); test: inhibition of 14C-urate uptake in oocytes expressing hURAT1; assay type: cell-based; conditions: for fold weaker hURAT1 inhibitor than (1): IC50 compared with (1) (26 nM); for IC50: hURAT1 IC50 (nM) ± SD, inhibition of 14C-urate uptake in oocytes expressing hURAT1
T1 sequence (Q96S37 1-553): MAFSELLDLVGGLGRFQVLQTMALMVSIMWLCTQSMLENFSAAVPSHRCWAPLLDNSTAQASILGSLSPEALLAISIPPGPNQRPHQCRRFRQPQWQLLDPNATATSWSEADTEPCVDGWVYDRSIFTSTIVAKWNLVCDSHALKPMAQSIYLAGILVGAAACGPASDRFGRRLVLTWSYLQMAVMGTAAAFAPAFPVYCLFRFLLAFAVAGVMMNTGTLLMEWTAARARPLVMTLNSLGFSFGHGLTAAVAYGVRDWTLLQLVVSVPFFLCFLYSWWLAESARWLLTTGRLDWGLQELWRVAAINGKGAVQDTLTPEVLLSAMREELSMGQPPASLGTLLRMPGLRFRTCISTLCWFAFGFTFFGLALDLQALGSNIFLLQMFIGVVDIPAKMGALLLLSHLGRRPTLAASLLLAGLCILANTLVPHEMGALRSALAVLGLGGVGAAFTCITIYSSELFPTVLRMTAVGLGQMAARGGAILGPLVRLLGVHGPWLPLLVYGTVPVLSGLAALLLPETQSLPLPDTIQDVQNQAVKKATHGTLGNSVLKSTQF

[3] = cited from earlier work

`CCc1oc2ccccc2c1C(=O)c1cc(Br)c(O)c(Br)c1` [(1), (3,5-dibromo-4-hydroxyphenyl)(2-ethylbenzofuran-3-yl)methanone, reference compound] gave a microsomal CLint at 1 µM [1] of 51.3 ± 6.7 µL/min/mg, an AUC [2] of 9070 ± 590 ng·h/mL and a T1/2 ([2]; parent compound, orbital sinus 0.5 mg/kg, blood, n = 3 ± SD) of 1.1 ± 0.1 h.

For `CCc1oc2ccccc2c1C(=O)c1cc(Cl)c(O)c(Cl)c1` [(19), (3,5-dichloro-4-hydroxyphenyl)(2-ethylbenzofuran-3-yl)methanone], the “fold weaker hURAT1 inhibitor than (1)” value (hURAT1 (SLC22A12)) was ~ 15 fold and the IC50 (hURAT1 (SLC22A12)) was 399 ± 56 nM.

In the case of `CCc1oc2ccc(O)cc2c1C(=O)c1cc(Br)c(O)c(Br)c1` [(8), (3,5-dibromo-4-hydroxyphenyl)(2-ethyl-5-hydroxybenzofuran-3-yl)methanone], the microsomal CLint at 1 µM [1] is reported as 52 ± 0.1 µL/min/mg and the AUC [2] is reported as 940 ± 80 ng·h/mL.

In the case of `CCc1oc2cc(O)ccc2c1C(=O)c1cc(Br)c(O)c(Br)c1` [(5), (3,5-dibromo-4-hydroxyphenyl)(2-ethyl-6-hydroxybenzofuran-3-yl)methanone], the microsomal CLint at 1 µM [1] is reported as 19.7 ± 2.8 µL/min/mg and the AUC [2] is reported as 6160 ± 680 ng·h/mL.

With `CCc1oc2cc(OC)c(Br)cc2c1C(=O)c1cc(Br)c(O)c(Br)c1` [(4), (5-bromo-2-ethyl-6-methoxybenzofuran-3-yl)(3,5-dibromo-4-hydroxyphenyl)methanone] the microsomal CLint at 1 µM [1] was 23.5 ± 10.9 µL/min/mg.

`CCCCc1oc2ccccc2c1C(=O)c1cc(Br)c(O)c(Br)c1` [(18), (2-butylbenzofuran-3-yl)(3,5-dibromo-4-hydroxyphenyl)methanone] gave an IC50 (hURAT1 (SLC22A12)) of 1930 ± 90 nM.

Molecule `CCc1oc2cc(Br)c(O)c(Br)c2c1C(=O)c1ccc(OC)cc1` [(7), (4,6-dibromo-2-ethyl-5-hydroxybenzofuran-3-yl)(4-methoxyphenyl)methanone] has a microsomal CLint at 1 µM [1] of 286.8 ± 0.9 µL/min/mg.

With `CCc1oc2ccccc2c1C(=O)c1cc(Br)c(OC)c(Br)c1` [(16), (3,5-dibromo-4-methoxyphenyl)(2-ethylbenzofuran-3-yl)methanone] the “fold weaker hURAT1 inhibitor than (1)” value (hURAT1 (SLC22A12)) was ~ 47 fold and the IC50 (hURAT1 (SLC22A12)) was 1220 ± 110 nM.

Work on `CCc1cc2c(C(=O)c3cc(Br)c(O)c(Br)c3)cc(Br)c(O)c2o1` [(26), (6-bromo-2-ethyl-7-hydroxybenzofuran-4-yl)(3,5-dibromo-4-hydroxyphenyl)methanone] yielded a microsomal CLint at 1 µM [1] of 34.3 ± 1.2 µL/min/mg.

`CCc1oc2ccccc2c1C(=O)c1ccc(O)c(Br)c1` [(12), (3-bromo-4-hydroxyphenyl)(2-ethylbenzofuran-3-yl)methanone] gave an IC50 (hURAT1 (SLC22A12)) of 814 ± 160 nM.

`CCc1cc2cc(O)cc(C(=O)c3cc(Br)c(O)c(Br)c3)c2o1` [(22), (3,5-dibromo-4-hydroxyphenyl)(2-ethyl-5-hydroxybenzofuran-7-yl)methanone] gave a microsomal CLint at 1 µM [1] of 454 ± 18.2 µL/min/mg.

`CCc1oc2ccc(OC)cc2c1C(=O)c1cc(Br)c(O)c(Br)c1` [(6), (3,5-dibromo-4-hydroxyphenyl)(2-ethyl-5-methoxybenzofuran-3-yl)methanone] showed a microsomal CLint at 1 µM [1] of 44.9 ± 6.6 µL/min/mg and an AUC [2] of 2630 ± 250 ng·h/mL.

In the case of `CCc1oc2ccc(OC)cc2c1C(=O)c1ccc(O)cc1` [(2), (2-ethyl-5-methoxybenzofuran-3-yl)(4-hydroxyphenyl)methanone], the microsomal CLint at 1 µM [1] is reported as 412 ± 6.4 µL/min/mg.

With `CCc1oc2ccc(F)cc2c1C(=O)c1cc(Br)c(O)c(Br)c1` [(9), (3,5-dibromo-4-hydroxyphenyl)(2-ethyl-5-fluorobenzofuran-3-yl)methanone] the microsomal CLint at 1 µM [1] was 142 ± 5.5 µL/min/mg and the AUC [2] was 5260 ± 810 ng·h/mL.

For `CC(C)(C)c1cccc(C(C)(C)C)c1O` [2,6-di-tert-butyl-phenol], the pKa ([3]; phenol pKa values ref 11) is listed as 10.2.

In the case of `CCc1cc2c(C(=O)c3cc(Br)c(O)c(Br)c3)c(O)ccc2o1` [(25), (3,5-dibromo-4-hydroxyphenyl)(2-ethyl-5-hydroxybenzofuran-4-yl)methanone], the microsomal CLint at 1 µM [1] is reported as 94.8 ± 5.1 µL/min/mg.

In the case of `CCc1cc2cc(OC)cc(C(=O)c3ccc(OC)cc3)c2o1` [(20), (2-ethyl-5-methoxybenzofuran-7-yl)(4-methoxyphenyl)methanone], the microsomal CLint at 1 µM [1] is reported as 704 ± 12.7 µL/min/mg.

With `CCc1cc2cc(OC)cc(C(=O)c3cc(Br)c(O)c(Br)c3)c2o1` [(21), (3,5-dibromo-4-hydroxyphenyl)(2-ethyl-5-methoxybenzofuran-7-yl)methanone] the microsomal CLint at 1 µM [1] was 210 ± 5.9 µL/min/mg.

For `O=c1[nH]c(=O)c2[nH]c(=O)[nH]c2[nH]1` [uric acid], the pKa ([3]; in urine) is listed as 5.4.

For `CCc1oc2ccccc2c1C(=O)c1ccc(O)c(F)c1` [(10), (2-ethylbenzofuran-3-yl)(3-fluoro-4-hydroxyphenyl)methanone], the IC50 (hURAT1 (SLC22A12)) was 2410 ± 90 nM.

`CCc1oc2ccccc2c1C(=O)c1ccc(O)c(I)c1` [(13), (2-ethylbenzofuran-3-yl)(4-hydroxy-3-iodophenyl)methanone] showed an IC50 (hURAT1 (SLC22A12)) of 1490 ± 80 nM.

For `CCc1oc2ccccc2c1C(=O)c1ccc(O)c(Cl)c1` [(11), (3-chloro-4-hydroxyphenyl)(2-ethylbenzofuran-3-yl)methanone], the IC50 (hURAT1 (SLC22A12)) was 874 ± 56 nM.

`CCc1oc2cc(OC)ccc2c1C(=O)c1cc(Br)c(O)c(Br)c1` [(3), (3,5-dibromo-4-hydroxyphenyl)(2-ethyl-6-methoxybenzofuran-3-yl)methanone] showed a microsomal CLint at 1 µM [1] of 207 ± 4.2 µL/min/mg and an AUC [2] of 9600 ± 280 ng·h/mL.

In the case of `CCCCc1oc2ccccc2c1C(=O)c1ccc(O)cc1` [(17), (2-butylbenzofuran-3-yl)(4-hydroxyphenyl)methanone], the “hURAT1 inhibition compared with corresponding ethyl analog” value (hURAT1 (SLC22A12); butyl versus ethyl analog, ethyl analog ref 10) is reported as “much weaker inhibitor than the corresponding ethyl analog”.

`CCc1cc2c(C(=O)c3ccc(OC)cc3)cc(Br)c(O)c2o1` [(23), (6-bromo-2-ethyl-7-hydroxybenzofuran-4-yl)(4-methoxyphenyl)methanone] showed a microsomal CLint at 1 µM [1] of 121 ± 12.2 µL/min/mg.

Molecule `CCc1cc2c(C(=O)c3cc(Br)c(O)c(Br)c3)c(OC)ccc2o1` [(24), (3,5-dibromo-4-hydroxyphenyl)(2-ethyl-5-methoxybenzofuran-4-yl)methanone] has a microsomal CLint at 1 µM [1] of 323 ± 10.8 µL/min/mg.

Molecule `CCc1oc2ccccc2c1C(=O)c1cc(C)c(O)c(C)c1` [(15), (2-ethylbenzofuran-3-yl)(4-hydroxy-3,5-dimethylphenyl)methanone] has an IC50 (hURAT1 (SLC22A12)) of 7540 ± 60 nM.
